Test results taken from PubChem BioAssay AID1963959 (Molecular Pharmacology Branch, DTP, NCI, 2024).

Test system: T-47D spheroids with HUVEC/MSC, viability
Test: Anticancer human tumor T-47D cell line growth inhibition [PI3K];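 note: spheroids exposed to agents for seven days before reading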;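 for viability, T/C: percent of DMSO vehicle control luminescence so 100% = untreated growth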
Details: for IC50: curve of first compound; for viability, T/C: stronger effect = lower value; active = viability on the fitted dose curve at most 10% of control; inactive = the rest
Summary of the method: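 We assembled tumor spheroids that included a stromal compartment of HUVEC and MSCs, then exposed them to targeted agents alone and together with PI3K pathway inhibitors. Concentration series descended by half-log from clinically achievable Cmax levels. Viability served as the endpoint.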

[1] = second compound 0.00316 µM, first compound 0.000316 µM
[2] = second compound 0.00316 µM, first compound 0.001 µM
[3] = second compound 0.00316 µM, first compound 0.00316 µM
[4] = second compound 0.00316 µM, first compound 0.01 µM
[5] = second compound 0.00316 µM, first compound 0.0316 µM
[6] = second compound 0.00316 µM, first compound 0.1 µM
[7] = second compound 0.01 µM, first compound 0.000316 µM
[8] = second compound 0.01 µM, first compound 0.001 µM
[9] = second compound 0.01 µM, first compound 0.00316 µM
[10] = second compound 0.01 µM, first compound 0.01 µM
[11] = second compound 0.01 µM, first compound 0.0316 µM
[12] = second compound 0.01 µM, first compound 0.1 µM
[13] = second compound 0.0316 µM, first compound 0.000316 µM
[14] = second compound 0.0316 µM, first compound 0.001 µM
[15] = second compound 0.0316 µM, first compound 0.00316 µM
[16] = second compound 0.0316 µM, first compound 0.01 µM
[17] = second compound 0.0316 µM, first compound 0.0316 µM
[18] = second compound 0.0316 µM, first compound 0.1 µM
[19] = second compound 0.1 µM, first compound 0.000316 µM
[20] = second compound 0.1 µM, first compound 0.001 µM
[21] = second compound 0.1 µM, first compound 0.00316 µM
[22] = second compound 0.1 µM, first compound 0.01 µM
[23] = second compound 0.1 µM, first compound 0.0316 µM
[24] = second compound 0.1 µM, first compound 0.1 µM
[25] = second compound 0.316 µM, first compound 0.000316 µM
[26] = second compound 0.316 µM, first compound 0.001 µM
[27] = second compound 0.316 µM, first compound 0.00316 µM
[28] = second compound 0.316 µM, first compound 0.01 µM
[29] = second compound 0.316 µM, first compound 0.0316 µM
[30] = second compound 0.316 µM, first compound 0.1 µM
[31] = second compound 1 µM, first compound 0.000316 µM
[32] = second compound 1 µM, first compound 0.001 µM
[33] = second compound 1 µM, first compound 0.00316 µM
[34] = second compound 1 µM, first compound 0.01 µM
[35] = second compound 1 µM, first compound 0.0316 µM
[36] = second compound 1 µM, first compound 0.1 µM
[37] = second compound 3.16 µM, first compound 0.0316 µM
[38] = second compound 3.16 µM, first compound 0.1 µM
[39] = second compound 10 µM, first compound 0.0316 µM
[40] = second compound 10 µM, first compound 0.1 µM

CC(=O)c1c(C)c2cnc(Nc3ccc(N4CCNCC4)cn3)nc2n(C2CCCC2)c1=O + COc1c(OCCCN2CCOCC2)ccc2c3n(c(=NC(=O)c4cnc(N)nc4)nc12)CCN3
< 0.316 nM: IC50 (second compound 0.1 µM) | IC50 (second compound 0.316 µM) | IC50 (second compound 1 µM)
inactive: viability, T/C [1] 120% | viability, T/C [2] 118% | viability, T/C [3] 95.3% | viability, T/C [4] 95.6% | viability, T/C [5] 80.5% | viability, T/C [6] 85% | viability, T/C [7] 89.3% | viability, T/C [8] 104% | viability, T/C [9] 95.5% | viability, T/C [10] 83.4% | viability, T/C [11] 84.3% | viability, T/C [12] 74.2% | viability, T/C [13] 71.3% | viability, T/C [14] 64.8% | viability, T/C [15] 74.2% | viability, T/C [16] 68.3% | viability, T/C [17] 51.8% | viability, T/C [18] 42.7% | viability, T/C [19] 35.3% | viability, T/C [20] 42.8% | viability, T/C [21] 34% | viability, T/C [22] 32.9% | viability, T/C [23] 26.6% | viability, T/C [24] 27.1% | viability, T/C [25] 14.5% | viability, T/C [26] 17.1% | viability, T/C [27] 19.7% | viability, T/C [28] 13.2% | viability, T/C [29] 15% | viability, T/C [30] 13.6%
active: viability, T/C [31] 5.84% | viability, T/C [32] 7.18% | viability, T/C [33] 7.6% | viability, T/C [34] 5.71% | viability, T/C [35] 7.91% | viability, T/C [36] 6.26%
> 100 nM: IC50 (second compound 0.00316 µM) | IC50 (second compound 0.01 µM)
39.7 nM: IC50 (second compound 0.0316 µM)

CC(C)n1nc(-c2ccc3oc(N)nc3c2)c2c(N)ncnc21 + CC(Nc1ncnc2nc[nH]c12)c1cc2cccc(Cl)c2c(=O)n1-c1ccccc1
50.9 nM: IC50 (second compound 10 µM)
70.5 nM: IC50 (second compound 0.0316 µM)
61.8 nM: IC50 (second compound 0.316 µM)
64.3 nM: IC50 (second compound 3.16 µM)
72.2 nM: IC50 (second compound 1 µM)
83.5 nM: IC50 (second compound 0.1 µM)
inactive: viability, T/C [13] 116% | viability, T/C [14] 103% | viability, T/C [15] 98.8% | viability, T/C [16] 97.3% | viability, T/C [17] 90% | viability, T/C [18] 33.1% | viability, T/C [19] 92.2% | viability, T/C [20] 76.5% | viability, T/C [21] 87.8% | viability, T/C [22] 92.8% | viability, T/C [23] 79.2% | viability, T/C [24] 44.6% | viability, T/C [25] 93.5% | viability, T/C [26] 107% | viability, T/C [27] 91.3% | viability, T/C [28] 104% | viability, T/C [29] 67.6% | viability, T/C [30] 37.3% | viability, T/C [31] 86.4% | viability, T/C [32] 107% | viability, T/C [33] 78.4% | viability, T/C [34] 90% | viability, T/C [35] 83.7% | viability, T/C [36] 36.6% | viability, T/C (second compound 3.16 µM, first compound 0.000316 µM) 99.4% | viability, T/C (second compound 3.16 µM, first compound 0.001 µM) 94.2% | viability, T/C (second compound 3.16 µM, first compound 0.00316 µM) 86.9% | viability, T/C (second compound 3.16 µM, first compound 0.01 µM) 76.2% | viability, T/C [37] 82.2% | viability, T/C [38] 33.1% | viability, T/C (second compound 10 µM, first compound 0.000316 µM) 95% | viability, T/C (second compound 10 µM, first compound 0.001 µM) 75.1% | viability, T/C (second compound 10 µM, first compound 0.00316 µM) 80.5% | viability, T/C (second compound 10 µM, first compound 0.01 µM) 75.6% | viability, T/C [39] 61.4% | viability, T/C [40] 35.1%

CC1(C)CCC(CN2CCN(c3ccc(C(=O)NS(=O)(=O)c4ccc(NCC5CCOCC5)c([N+](=O)[O-])c4)c(Oc4cnc5[nH]ccc5c4)c3)CC2)=C(c2ccc(Cl)cc2)C1 + CC(Nc1ncnc2nc[nH]c12)c1cc2cccc(Cl)c2c(=O)n1-c1ccccc1
> 10000 nM: IC50 (second compound 0.0316 µM) | IC50 (second compound 0.1 µM) | IC50 (second compound 0.316 µM) | IC50 (second compound 1 µM) | IC50 (second compound 3.16 µM) | IC50 (second compound 10 µM)
inactive: viability, T/C [17] 120% | viability, T/C [18] 75.2% | viability, T/C (second compound 0.0316 µM, first compound 0.316 µM) 85.7% | viability, T/C (second compound 0.0316 µM, first compound 1 µM) 80.9% | viability, T/C (second compound 0.0316 µM, first compound 3.16 µM) 81% | viability, T/C (second compound 0.0316 µM, first compound 10 µM) 79.5% | viability, T/C [23] 110% | viability, T/C [24] 96% | viability, T/C (second compound 0.1 µM, first compound 0.316 µM) 99.5% | viability, T/C (second compound 0.1 µM, first compound 1 µM) 83.7% | viability, T/C (second compound 0.1 µM, first compound 3.16 µM) 89.6% | viability, T/C (second compound 0.1 µM, first compound 10 µM) 83.6% | viability, T/C [29] 88.5% | viability, T/C [30] 101% | viability, T/C (second compound 0.316 µM, first compound 0.316 µM) 86% | viability, T/C (second compound 0.316 µM, first compound 1 µM) 89.7% | viability, T/C (second compound 0.316 µM, first compound 3.16 µM) 85.3% | viability, T/C (second compound 0.316 µM, first compound 10 µM) 81% | viability, T/C [35] 96.9% | viability, T/C [36] 93.4% | viability, T/C (second compound 1 µM, first compound 0.316 µM) 91% | viability, T/C (second compound 1 µM, first compound 1 µM) 80.3% | viability, T/C (second compound 1 µM, first compound 3.16 µM) 77.1% | viability, T/C (second compound 1 µM, first compound 10 µM) 79.2% | viability, T/C [37] 91.6% | viability, T/C [38] 88.9% | viability, T/C (second compound 3.16 µM, first compound 0.316 µM) 97.3% | viability, T/C (second compound 3.16 µM, first compound 1 µM) 95.5% | viability, T/C (second compound 3.16 µM, first compound 3.16 µM) 87.3% | viability, T/C (second compound 3.16 µM, first compound 10 µM) 66.8% | viability, T/C [39] 96.5% | viability, T/C [40] 94.4% | viability, T/C (second compound 10 µM, first compound 0.316 µM) 88.8% | viability, T/C (second compound 10 µM, first compound 1 µM) 89% | viability, T/C (second compound 10 µM, first compound 3.16 µM) 86.1% | viability, T/C (second compound 10 µM, first compound 10 µM) 79.8%

CC(C)n1nc(-c2ccc3oc(N)nc3c2)c2c(N)ncnc21 + CC(Nc1ccc2c(c1)OCCn1cc(N3C(=O)OCC3C(F)F)nc1-2)C(N)=O
active: viability, T/C [30] 5.87% | viability, T/C [36] 3.47%
28.4 nM: IC50 (second compound 0.1 µM)
2.28 nM: IC50 (second compound 1 µM)
inactive: viability, T/C [1] 112% | viability, T/C [2] 98% | viability, T/C [3] 110% | viability, T/C [4] 91.2% | viability, T/C [5] 88.6% | viability, T/C [6] 33% | viability, T/C [7] 89.2% | viability, T/C [8] 97.4% | viability, T/C [9] 94.4% | viability, T/C [10] 83.2% | viability, T/C [11] 72.5% | viability, T/C [12] 32.2% | viability, T/C [13] 94.6% | viability, T/C [14] 101% | viability, T/C [15] 84.5% | viability, T/C [16] 82.4% | viability, T/C [17] 70.5% | viability, T/C [18] 25.5% | viability, T/C [19] 76% | viability, T/C [20] 90.8% | viability, T/C [21] 89.9% | viability, T/C [22] 71.1% | viability, T/C [23] 48.5% | viability, T/C [24] 17% | viability, T/C [25] 68.2% | viability, T/C [26] 65.1% | viability, T/C [27] 56.5% | viability, T/C [28] 41.8% | viability, T/C [29] 29.9% | viability, T/C [31] 57.6% | viability, T/C [32] 56.2% | viability, T/C [33] 47.9% | viability, T/C [34] 34.4% | viability, T/C [35] 18.8%
5.64 nM: IC50 (second compound 0.316 µM)
51.4 nM: IC50 (second compound 0.0316 µM)
69.5 nM: IC50 (second compound 0.00316 µM)
59.6 nM: IC50 (second compound 0.01 µM)
